In test [1] the test system is engineered strain of Escherichia coli harboring CTX-M15. The experiment in a line: microbe, parasite or virus in culture. It is filed as cell-based. The conditions noted are these: Escherichia coli, read-out: Microbiological Activity (MIC in mg/L), E. coli DH5α/pLBII-CTX-M15, engineered strain producing CTX-M15.
The target in test [2] is E. coli PBP3 (Escherichia coli (strain K12), UniProt P0AD68). The experiment in a line: E. coli PBP3 Bocillin-FL fluorescence polarization competition binding assay. A digest of the protocol: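 Purified PBP (1.5 μM final) was combined with test compound (0–1000 μM) and Bocillin-FL (fluorescent penicillin V, 0.1 μM final) in 50 mM Hepes pH 8.0, 300 mM NaCl, 5% glycerol.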
Chain of E. coli PBP3 (P0AD68 whole entry): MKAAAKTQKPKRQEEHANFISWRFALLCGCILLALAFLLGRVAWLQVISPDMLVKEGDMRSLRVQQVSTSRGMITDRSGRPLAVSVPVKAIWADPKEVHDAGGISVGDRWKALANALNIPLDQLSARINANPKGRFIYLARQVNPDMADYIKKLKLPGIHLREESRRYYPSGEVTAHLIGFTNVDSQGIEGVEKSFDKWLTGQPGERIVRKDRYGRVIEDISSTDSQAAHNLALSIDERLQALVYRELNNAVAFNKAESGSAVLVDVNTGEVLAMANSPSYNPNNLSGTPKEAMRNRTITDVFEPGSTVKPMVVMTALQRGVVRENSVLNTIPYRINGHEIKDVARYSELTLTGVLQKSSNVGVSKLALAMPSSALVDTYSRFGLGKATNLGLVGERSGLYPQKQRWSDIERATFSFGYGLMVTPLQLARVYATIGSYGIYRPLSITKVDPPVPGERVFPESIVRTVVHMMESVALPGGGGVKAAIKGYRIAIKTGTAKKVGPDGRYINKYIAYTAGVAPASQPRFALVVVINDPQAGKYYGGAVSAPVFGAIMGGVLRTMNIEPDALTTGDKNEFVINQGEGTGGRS
On the technique in general: Fluorescence polarisation rises when a labelled molecule tumbles more slowly, as on binding a larger partner.

Test [3] has as its target E. coli PBP1b (Escherichia coli (strain K12), UniProt P02919). The experiment in a line: Radioligand competition binding assay with 14C-labeled boronic acid probe, PBP1b. An excerpt: To determine the ability of boronic acid-based test PBP inhibitors to bind Penicillin Binding Proteins (PBPs), a radio-labelled boronic acid PBP inhibitor
[drawing 751] was used in competition binding assays to determine boronic acid PBP inhibitor binding to PBP1a or PBP1b from Escherichia coli. PBP1a and PBP1b were purified as described previously (Bertsche, U.; et al., J. Biol. Chem. 2005, 280 (45), 38096-38101; Born, P.; et al., J. Biol. Chem. 2006. 281 (37), 26985-26993). To establish assay conditions for competition binding, an enzyme titration/saturation binding experiment was performed. Saturation binding was performed in a buffer comprised of 20 mM Tris (pH 7.5), 500 mM NaCl and 0.1% (v/v) TritonX-100, with PBP1a/PBP1b at a final concentration of 0.1 μM and Compound A at final concentrations ranging from 0-100 μM. Mixtures were incubated for 60 minutes, then applied to Zeba Spin Desalting columns or plates (ThermoFisher Scientific) and centrifuged at 1000-1500×g for 2 minutes. The flow through, containing PBP bound with Compound A, was recovered and 100 μL mixed with 5 mL of UltimaGold liquid scintillation cocktail (Perkin Elmer), and the radioactivity counted using a Beckman Coulter LS 6500 Multipurpose scintillation counter. PBP binding of Compound A approached saturation at 20 μM of ^14C-labeled probe. The competition binding assay was validated using the beta-lactam ampicillin, with Compound A at a final concentration of 20 μM, PBP1a/PBP1b at a final concentration of 0.1 μM. PBP1a/PBP1b was incubated with ampicillin in a 96-well microplate for 60 minutes, then Compound A was added and the mixtures incubated for an additional 60 minutes. The mixtures were then applied to Zeba Spin desalting plates and centrifuged at 1000×g for 2 minutes. The flow through was recovered and 100 μl mixed with 5 ml of UltimaGold liquid scintillation cocktail and the radioactivity counted. […] Binding assays with boronic acid PBP inhibitors were performed in an identical fashion. The potency of boronic acid PBP inhibitors was reported as the EC50 value.
Background: Displacement assays read how much labelled ligand stays bound in the presence of the test substance.

Setting [4] is: fluorescence polarization competition binding with Bocillin-FL, read-out: E. coli K12 PBP3 Potency.

Values after ≈ are worked out from the molar mass of the structure shown. Structures can show the parent of a compound that is named as a salt. Where two headings read alike, the source gives them in different places.

Chain of E. coli PBP1b (P02919 whole entry): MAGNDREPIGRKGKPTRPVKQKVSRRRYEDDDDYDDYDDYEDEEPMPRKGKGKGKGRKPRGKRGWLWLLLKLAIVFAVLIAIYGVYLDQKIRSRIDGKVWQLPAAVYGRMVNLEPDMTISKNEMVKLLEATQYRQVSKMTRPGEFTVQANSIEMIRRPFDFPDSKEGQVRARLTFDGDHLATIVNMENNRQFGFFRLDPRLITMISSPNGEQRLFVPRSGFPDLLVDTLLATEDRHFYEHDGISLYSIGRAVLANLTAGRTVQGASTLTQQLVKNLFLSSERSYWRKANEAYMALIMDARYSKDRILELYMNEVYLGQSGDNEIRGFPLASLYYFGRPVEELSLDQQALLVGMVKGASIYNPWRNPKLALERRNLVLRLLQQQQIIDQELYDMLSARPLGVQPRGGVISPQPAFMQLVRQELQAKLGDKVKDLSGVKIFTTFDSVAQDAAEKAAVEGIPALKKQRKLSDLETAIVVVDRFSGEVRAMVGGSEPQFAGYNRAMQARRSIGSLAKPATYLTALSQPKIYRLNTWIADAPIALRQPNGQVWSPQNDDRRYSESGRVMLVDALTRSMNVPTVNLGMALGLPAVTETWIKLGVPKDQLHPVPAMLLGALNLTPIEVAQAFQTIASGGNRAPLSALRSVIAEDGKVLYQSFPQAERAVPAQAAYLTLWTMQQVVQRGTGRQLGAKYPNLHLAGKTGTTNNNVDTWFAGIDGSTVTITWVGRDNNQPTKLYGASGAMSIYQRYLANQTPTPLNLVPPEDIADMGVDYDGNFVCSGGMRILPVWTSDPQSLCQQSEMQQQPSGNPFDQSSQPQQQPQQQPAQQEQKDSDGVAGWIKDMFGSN

For the molecule `CCN1CCN(C(=O)NC(CNC(C)=O)C(=O)N[C@H]2Cc3cccc(C(=O)O)c3OB2O)C(=O)C1=O` (stereo partly drawn) [Example 69, (3R)-3-(3-acetamido-2-(4-ethyl-2,3-dioxopiperazine-1-carboxamido)propanamido)-2-hydroxy-3,4-dihydro-2H-benzo[e][1,2]oxaborinine-8-carboxylic acid], in test [1], the MIC was in the range of 128 to 256 mg/L (≈ 254 to 509 µM). In addition, the EC50 in test [2] (setting [4]) was above 500 µM; in test [3], below 10 µM.
Take `CCN1CCN(C(=O)NC(C(=O)N[C@H]2Cc3cccc(C(=O)O)c3OB2O)C2CCN(S(N)(=O)=O)CC2)C(=O)C1=O` (stereo partly drawn) [Example 77, (3R)-3-(2-(4-ethyl-2,3-dioxopiperazine-1-carboxamido)-2-(1-sulfamoylpiperidin-4-yl)acetamido)-2-hydroxy-3,4-dihydro-2H-benzo[e][1,2]oxaborinine-8-carboxylic acid]: the MIC in test [1] was in the range of 128 to 256 mg/L (≈ 215 to 431 µM). Further, the EC50 is 30 to 500 µM in test [2] and below 10 µM in test [3].
For `CCN1CCN(C(=O)N[C@@H](C(=O)N[C@H]2Cc3cccc(C(=O)O)c3OB2O)C2CCN(C(=N)N)CC2)C(=O)C1=O` [Example 91, (R)-3-((R)-2-(1-carbamimidoylpiperidin-4-yl)-2-(4-ethyl-2,3-dioxopiperazine-1-carboxamido)acetamido)-2-hydroxy-3,4-dihydro-2H-benzo[e][1,2]oxaborinine-8-carboxylic acid], the MIC in test [1] lay within 128 to 256 mg/L (≈ 230 to 459 µM). The values for the EC50 in test [2] and in test [3] were above 500 µM and below 10 µM, respectively.
Regarding `CCN1CCN(C(=O)NC(C(=O)N[C@H]2Cc3cccc(C(=O)O)c3OB2O)C2CCCC2)C(=O)C1=O` (stereo partly drawn) [Example 116, (3R)-3-(2-cyclopentyl-2-(4-ethyl-2,3-dioxopiperazine-1-carboxamido)acetamido)-2-hydroxy-3,4-dihydro-2H-benzo[e][1,2]oxaborinine-8-carboxylic acid], the MIC in test [1] is 128 to 256 mg/L (≈ 256 to 512 µM). Also, the EC50 in test [2] (setting [4]) was below 30 µM; in test [3], 10 to 100 µM.
For the molecule `CCN1CCN(C(=O)NC(C(=O)N[C@H]2Cc3cccc(C(=O)O)c3OB2O)c2ccc(S(C)(=O)=O)cc2)C(=O)C1=O` (stereo partly drawn) [Example 118, (3R)-3-(2-(4-ethyl-2,3-dioxopiperazine-1-carboxamido)-2-(4-(methylsulfonyl)phenyl)acetamido)-2-hydroxy-3,4-dihydro-2H-benzo[e][1,2]oxaborinine-8-carboxylic acid], the MIC in test [1] is 128 to 256 mg/L (≈ 218 to 437 µM). The EC50 in test [2] (setting [4]) is below 30 µM; in test [3], above 100 µM.
With `CCN1CCN(C(=O)NC(C(=O)N[C@H]2Cc3cccc(C(=O)O)c3OB2O)c2ccc(O)nc2Cl)C(=O)C1=O` (stereo partly drawn) [Example 67, (3R)-3-(2-(2-chloro-6-hydroxypyridin-3-yl)-2-(4-ethyl-2,3-dioxopiperazine-1-carboxamido)acetamido)-2-hydroxy-3,4-dihydro-2H-benzo[e][1,2]oxaborinine-8-carboxylic acid], the MIC in test [1] lay in the range of 128 to 256 mg/L (≈ 229 to 457 µM). The EC50 is 30 to 500 µM in test [2] and 10 to 100 µM in test [3].
In the case of `CCN1CCN(C(=O)N[C@H](CNCC(=O)O)C(=O)N[C@H]2Cc3cccc(C(=O)O)c3OB2O)C(=O)C1=O` [Example 73, (R)-3-((R)-3-((carboxymethyl)amino)-2-(4-ethyl-2,3-dioxopiperazine-1-carbox-amido)propanamido)-2-hydroxy-3,4-dihydro-2H-benzo[e][1,2]oxaborinine-8-carboxylic acid, trifluoroacetic acid salt], the MIC in test [1] is 128 to 256 mg/L. Besides, the EC50 in test [2] (setting [4]) was above 500 µM; in test [3], above 100 µM.
As for `CCN1CCN(C(=O)NC(C(=O)N[C@H]2Cc3cccc(C(=O)O)c3OB2O)c2ccc(CCN)cc2)C(=O)C1=O` (stereo partly drawn) [Example 64, (3R)-3-(2-(4-(2-aminoethyl)phenyl)-2-(4-ethyl-2,3-dioxopiperazine-1-carboxamido)acetamido)-2-hydroxy-3,4-dihydro-2H-benzo[e][1,2]oxaborinine-8-carboxylic acid], the MIC in test [1] is 128 to 256 mg/L (≈ 232 to 464 µM). The EC50 in test [2] (setting [4]) was above 500 µM; in test [3], 10 to 100 µM.
On to `CCN1CCN(C(=O)NC(C(=O)N[C@H]2Cc3cccc(C(=O)O)c3OB2O)c2cnn(C)c2)C(=O)C1=O` (stereo partly drawn) [Example 60, (3R)-3-(2-(4-ethyl-2,3-dioxopiperazine-1-carboxamido)-2-(1-methyl-1H-pyrazol-4-yl)acetamido)-2-hydroxy-3,4-dihydro-2H-benzo[e][1,2]oxaborinine-8-carboxylic acid], for which, in test [1], the MIC lay in the range of 32 to 64 mg/L (≈ 62.5 to 125 µM). The EC50 in test [2] is 30 to 500 µM; in test [3], 10 to 100 µM.
With `CS(=O)(=O)c1ccc(C(NC(=O)N2CCN(CCF)C(=O)C2=O)C(=O)N[C@H]2Cc3cccc(C(=O)O)c3OB2O)cc1` (stereo partly drawn) [Example 119, (3R)-3-(2-(4-(2-fluoroethyl)-2,3-dioxopiperazine-1-carboxamido)-2-(4-(methylsulfonyl)phenyl)acetamido)-2-hydroxy-3,4-dihydro-2H-benzo[e][1,2]oxaborinine-8-carboxylic acid], in test [1], the MIC lay in the range of 32 to 64 mg/L (≈ 52.9 to 106 µM). Further, the EC50 in test [2] was 30 to 500 µM; in test [3] it was above 100 µM.
For the molecule `CCN1CCN(C(=O)N[C@@H](CNS(C)(=O)=O)C(=O)N[C@H]2Cc3cccc(C(=O)O)c3OB2O)C(=O)C1=O` [Example 84, (R)-3-((S)-2-(4-ethyl-2,3-dioxopiperazine-1-carboxamido)-3-(methylsulfonamido)propanamido)-2-hydroxy-3,4-dihydro-2H-benzo[e][1,2]oxaborinine-8-carboxylic acid], the MIC in test [1] lay within 128 to 256 mg/L (≈ 237 to 475 µM). Moreover, the EC50 was 30 to 500 µM in test [2] and below 10 µM in test [3].
Turning to `CCN1CCN(C(=O)NC(C(=O)N[C@H]2Cc3cccc(C(=O)O)c3OB2O)c2ccc(C)cn2)C(=O)C1=O` (stereo partly drawn) [Example 127, (3R)-3-(2-(4-ethyl-2,3-dioxopiperazine-1-carboxamido)-2-(5-methylpyridin-2-yl)acetamido)-2-hydroxy-3,4-dihydro-2H-benzo[e][1,2]oxaborinine-8-carboxylic acid], the EC50 in test [2] (setting [4]) is above 500 µM; in test [3], above 100 µM.
For `CCN1CCN(C(=O)NC(C(=O)N[C@H]2Cc3cccc(C(=O)O)c3OB2O)C(O)c2ccc(O)c(O)c2Cl)C(=O)C1=O` (stereo partly drawn) [Example 47, (3R)-3-(3-(2-chloro-3,4-dihydroxyphenyl)-2-(4-ethyl-2,3-dioxopiperazine-1-carboxamido)-3-hydroxypropanamido)-2-hydroxy-3,4-dihydro-2H-benzo[e][1,2]oxaborinine-8-carboxylic acid], the EC50 is above 500 µM in test [2] (setting [4]) and 10 to 100 µM in test [3].
As to `CCN1CCN(C(=O)NC(C(=O)N[C@H]2Cc3cccc(C(=O)O)c3OB2O)C2CN(S(N)(=O)=O)C2)C(=O)C1=O` (stereo partly drawn) [Example 78, (3R)-3-(2-(4-ethyl-2,3-dioxopiperazine-1-carboxamido)-2-(1-sulfamoylazetidin-3-yl)acetamido)-2-hydroxy-3,4-dihydro-2H-benzo[e][1,2]oxaborinine-8-carboxylic acid], the MIC in test [1] lay in the range of 128 to 256 mg/L (≈ 226 to 452 µM). The molecule further returned an EC50 in test [3] above 100 µM.
Consider `CCN1CCN(C(=O)NC(C(=O)N[C@H]2Cc3cccc(C(=O)O)c3OB2O)C2CCS(=O)(=O)C2)C(=O)C1=O` (stereo partly drawn) [Example 123, (3R)-3-(2-(1,1-dioxidotetrahydrothiophen-3-yl)-2-(4-ethyl-2,3-dioxopiperazine-1-carboxamido)acetamido)-2-hydroxy-3,4-dihydro-2H-benzo[e][1,2]oxaborinine-8-carboxylic acid], for which the figures for the EC50 in test [2] (setting [4]) and in test [3] were above 500 µM and above 100 µM, respectively.

Source of the values: patent publication US12173018B2, “Penicillin-binding protein inhibitors” (priority 2018, dated 2024).
